Non-standard residues stand in square brackets, D forms with d. Residues, ends and D or L forms follow the SMILES beside them. Aze = O=C(O)[C@@H]1CCN1

Broadly, the IC50 is the concentration at which inhibition is half-maximal.

Assay type in all cases: cell-based
One assay has as its target T1, human CXCR3 (Homo sapiens, UniProt P49682).
T1 construct: expressed in transfected cells; host or cells: mouse pre-B cell line 300-19
T1 sequence (P49682 1-368): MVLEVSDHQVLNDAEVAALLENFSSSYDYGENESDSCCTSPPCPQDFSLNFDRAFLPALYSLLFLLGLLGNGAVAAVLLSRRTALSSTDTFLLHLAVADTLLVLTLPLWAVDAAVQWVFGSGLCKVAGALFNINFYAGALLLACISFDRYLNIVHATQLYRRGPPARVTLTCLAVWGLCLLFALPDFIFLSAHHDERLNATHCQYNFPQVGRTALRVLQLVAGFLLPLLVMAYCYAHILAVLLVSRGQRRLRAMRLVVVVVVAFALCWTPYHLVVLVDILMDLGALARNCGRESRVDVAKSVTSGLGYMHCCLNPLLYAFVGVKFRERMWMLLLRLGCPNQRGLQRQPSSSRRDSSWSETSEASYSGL
Nature of the assay: Calcium flux antagonism assay with human CXCL10. The conditions noted are these: 300-19 cells with human CXCR3, read-out: IC50% (μM) ± SD, CXCR3 receptor. As for the experimental part:
The mouse pre-B cell line 300-19 was stably transfected with the cDNA encoding the human UTR2 receptor (GenBank Acc#NM_018949), and expression was confirmed with a positive calcium signal in response to human urotensin (Sigma Aldrich). Increases in intracellular calcium were monitored using a Flexstation 384 (Molecular Devices, Sunnyvale, Calif.). The cells were batch loaded with the Calcium 3 Assay kit (Molecular Devices) in assay buffer (Hanks Balanced salt solution, HBSS, 20 mM HEPES, pH 7.4, 0.1% BSA) for 1 h at room temperature and labeled cells were dispensed into either black 96 well or 384 well assay plates (Greiner). Calcium mobilization induced by urotensin or compounds was measured in the Flexstation 384 (excitation, […]) for 70 seconds. Agonist activity was determined by direct addition of ligand or peptides, while antagonists were identified by pre-incubation of compounds with cells prior to urotensin addition. A dose response curve (compound concentration versus % maximum response for urotensin) was determined for each active agonist and antagonist and was fitted to a four parameter logistic equation using SoftmaxPro 4.6 (Molecular Devices), from which EC50% and IC50% values were calculated. […]

The next assay addresses T2, human CCR10 (Homo sapiens, UniProt P46092).
T2 construct: expressed in transfected cells; host or cells: mouse pre-B cell line 300-19
T2 sequence (P46092 1-362): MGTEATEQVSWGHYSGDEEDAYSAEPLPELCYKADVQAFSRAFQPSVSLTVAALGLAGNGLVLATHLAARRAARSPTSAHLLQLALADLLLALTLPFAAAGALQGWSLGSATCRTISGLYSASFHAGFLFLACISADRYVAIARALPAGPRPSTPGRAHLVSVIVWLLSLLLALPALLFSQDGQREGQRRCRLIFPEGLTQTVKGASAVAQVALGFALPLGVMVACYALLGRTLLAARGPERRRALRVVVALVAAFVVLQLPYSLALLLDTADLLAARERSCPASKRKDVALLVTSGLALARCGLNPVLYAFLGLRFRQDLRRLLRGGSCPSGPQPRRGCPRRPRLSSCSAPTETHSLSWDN
Nature of the assay: Calcium flux antagonism assay with human CCL27. The conditions noted are these: at 10 μM. How it is done: The mouse pre-B cell line 300-19 was stably transfected with the cDNA encoding the human UTR2 receptor (GenBank Acc#NM_018949), and expression was confirmed with a positive calcium signal in response to human urotensin (Sigma Aldrich). Increases in intracellular calcium were monitored using a Flexstation 384 (Molecular Devices, Sunnyvale, Calif.). The cells were batch loaded with the Calcium 3 Assay kit (Molecular Devices) in assay buffer (Hanks Balanced salt solution, HBSS, 20 mM HEPES, pH 7.4, 0.1% BSA) for 1 h at room temperature and labeled cells were dispensed into either black 96 well or 384 well assay plates (Greiner). Calcium mobilization induced by urotensin or compounds was measured in the Flexstation 384 (excitation, […]) for 70 seconds. Agonist activity was determined by direct addition of ligand or peptides, while antagonists were identified by pre-incubation of compounds with cells prior to urotensin addition. A dose response curve (compound concentration versus % maximum response for urotensin) was determined for each active agonist and antagonist and was fitted to a four parameter logistic equation using SoftmaxPro 4.6 (Molecular Devices), from which EC50% and IC50% values were calculated.
Peptides for CCR10 (Marchese et. al. 1994, Homey et. al.) and CXCR3 (Loetscher et. al. 1998, Marchese et. al. 1995) antagonism were assayed in a mouse pre-B cell line 300-19 stably transfected with either human CCR10 or CXCR3 (Marchese et. al. 1995). Antagonism at each receptor was measured with a calcium flux assay in these cells as described above for UTR2 assays using human CCL27 and human CXCL10 (Cole et. al.) for CCR10 and CXCR3 respectively.
(§1) Selectivity was measured using the calcium flux assay on a panel of human chemokine receptor bearing cell lines (CCR1, CCR2, CCR3, CCR4, CCR5, CCR6, CCR7, CCR8, CCR9, CCR10, CXCR1, CXCR2, CXCR2, CXCR4, CXCR6 and CXCCR1) using the same method as above

The target in a further assay is T3, CCR1 (Homo sapiens, UniProt P32246).
T3 sequence (P32246 1-355): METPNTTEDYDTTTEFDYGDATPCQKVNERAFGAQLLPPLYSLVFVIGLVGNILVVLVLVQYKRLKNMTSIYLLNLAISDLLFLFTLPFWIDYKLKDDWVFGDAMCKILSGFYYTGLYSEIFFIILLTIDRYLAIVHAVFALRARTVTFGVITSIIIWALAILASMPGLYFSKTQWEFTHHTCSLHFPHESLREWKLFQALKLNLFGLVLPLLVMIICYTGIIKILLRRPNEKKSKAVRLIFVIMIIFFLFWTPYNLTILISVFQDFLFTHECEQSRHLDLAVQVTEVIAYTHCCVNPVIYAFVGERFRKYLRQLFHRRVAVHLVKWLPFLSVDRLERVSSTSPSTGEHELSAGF
Briefly: Selectivity calcium flux assay, chemokine receptor panel. The conditions noted are these: at 10 μM. How it is done:
as §1
On the technique in general: A change in cytosolic calcium serves as a functional read-out for many receptors and channels.

The target of the next assay is CCR2 (Homo sapiens, UniProt P41597). Described as above. As to conditions: at 10 μM. As for the experimental part: as §1
The next assay concerns the target CCR5 (Homo sapiens, UniProt P51681). Described as above. The conditions noted are these: at 10 μM. As for the experimental part: as §1
In the next assay the target is T4, CCR6 (Homo sapiens, UniProt P51684).
T4 sequence (P51684 1-374): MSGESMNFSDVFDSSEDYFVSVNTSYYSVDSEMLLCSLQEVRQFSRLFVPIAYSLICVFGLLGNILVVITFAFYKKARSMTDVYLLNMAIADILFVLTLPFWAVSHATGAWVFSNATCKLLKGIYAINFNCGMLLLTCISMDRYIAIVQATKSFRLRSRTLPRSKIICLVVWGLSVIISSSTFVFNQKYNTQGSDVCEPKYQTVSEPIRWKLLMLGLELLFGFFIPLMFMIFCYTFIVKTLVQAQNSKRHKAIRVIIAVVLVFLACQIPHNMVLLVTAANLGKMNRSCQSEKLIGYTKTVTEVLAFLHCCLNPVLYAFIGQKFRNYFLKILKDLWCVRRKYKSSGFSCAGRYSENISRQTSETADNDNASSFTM
Described as above. The conditions noted are these: at 10 μM. How it is done: as §1

The target in the next assay is CXCR6 (Homo sapiens, UniProt O00574). Described as above. The conditions noted are these: at 10 μM. As for the experimental part:
as §1

Chain of CXCR6 (O00574 whole entry): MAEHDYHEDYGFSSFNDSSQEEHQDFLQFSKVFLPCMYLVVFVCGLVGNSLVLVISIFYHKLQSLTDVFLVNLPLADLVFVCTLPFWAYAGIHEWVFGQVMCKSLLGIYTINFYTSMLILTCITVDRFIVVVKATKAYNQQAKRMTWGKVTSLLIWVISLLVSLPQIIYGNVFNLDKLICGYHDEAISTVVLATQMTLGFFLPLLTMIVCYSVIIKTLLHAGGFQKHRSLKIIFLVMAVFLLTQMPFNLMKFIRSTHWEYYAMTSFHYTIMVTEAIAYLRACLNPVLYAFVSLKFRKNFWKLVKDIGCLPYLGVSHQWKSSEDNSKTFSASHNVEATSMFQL
Chain of CCR2 (P41597 whole entry): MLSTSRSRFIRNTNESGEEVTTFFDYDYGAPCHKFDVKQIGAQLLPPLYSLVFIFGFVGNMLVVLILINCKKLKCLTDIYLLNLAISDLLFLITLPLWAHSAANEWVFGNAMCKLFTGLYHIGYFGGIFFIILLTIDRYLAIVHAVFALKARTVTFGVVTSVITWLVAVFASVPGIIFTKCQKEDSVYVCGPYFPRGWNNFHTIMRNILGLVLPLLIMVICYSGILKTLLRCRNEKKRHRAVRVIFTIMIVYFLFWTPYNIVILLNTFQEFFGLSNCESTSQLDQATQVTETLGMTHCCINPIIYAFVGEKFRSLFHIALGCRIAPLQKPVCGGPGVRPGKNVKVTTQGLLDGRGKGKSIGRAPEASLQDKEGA
Chain of CCR5 (P51681 whole entry): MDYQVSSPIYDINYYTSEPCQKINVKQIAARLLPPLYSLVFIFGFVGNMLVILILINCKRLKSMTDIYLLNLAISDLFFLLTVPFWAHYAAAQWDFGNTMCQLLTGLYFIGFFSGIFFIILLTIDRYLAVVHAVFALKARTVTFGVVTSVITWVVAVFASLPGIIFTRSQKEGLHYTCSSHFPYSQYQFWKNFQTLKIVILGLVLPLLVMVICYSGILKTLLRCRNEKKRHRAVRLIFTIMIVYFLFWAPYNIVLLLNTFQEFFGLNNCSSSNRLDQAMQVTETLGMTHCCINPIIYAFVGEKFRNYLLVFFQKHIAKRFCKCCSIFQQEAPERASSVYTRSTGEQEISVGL

Regarding `N=C(N)NCCC[C@@H]1NC(=O)[C@H](Cc2c[nH]c3ccccc23)NC(=O)[C@H](Cc2ccc(O)cc2)NC(=O)[C@@H]2CCN2C(=O)[C@H]2CCCN2C(=O)CNC1=O` [Example 15] (cyclo(YWRG[dP][Aze])), on human CXCR3, the IC50 worked out at 8.6 µM. In addition, on human CCR10, the “selectivity against CCR10” value is on record as “highly selective”. The “selectivity against CCR1” value at CCR1 is on record as “highly selective”. For the same compound, the “selectivity against CCR2” value on CCR2 is on record as “highly selective”. For the same compound, the “selectivity against CCR5” value on CCR5 is “highly selective”. On CCR6, the “selectivity against CCR6” value is reported as “highly selective”. Moreover, the “selectivity against CXCR6” value on CXCR6 was “highly selective”.

As to `C[C@@H]1NC(=O)[C@H](CCCNC(=N)N)NC(=O)[C@H](Cc2c[nH]c3ccccc23)NC(=O)[C@H](Cc2ccc(O)cc2)NC(=O)[C@@H]2CCN2C(=O)[C@H]2CCCN2C1=O` [Example 16] (cyclo(YWRA[dP][Aze])), the IC50 on human CXCR3 came out at 8.1 µM. Also, the “selectivity against CCR10” value at human CCR10 was “highly selective”. Also, on CCR1, the “selectivity against CCR1” value was “highly selective”. Also, at CCR2, the “selectivity against CCR2” value is listed as “highly selective”. Besides, the “selectivity against CCR5” value on CCR5 is on record as “highly selective”. Further, the “selectivity against CCR6” value on CCR6 is recorded as “highly selective”. Further, the “selectivity against CXCR6” value on CXCR6 is listed as “highly selective”.
